Test results reported in paper PMC10987949, “Inhibition of HIV-1 release by ADAM metalloproteinase inhibitors” (Frontiers in Microbiology, 2024).

Columns and labels:
[1] = molecular target: T1, recombinant HIV-1 protease (Human immunodeficiency virus type 1 group M subtype B, UniProt P04585); test: HIV-1 protease fluorogenic substrate cleavage; format: biochemical; details: 100nM saquinavir or nelfinavir; MMP inhibitors up to 10uM
T1 construct: recombinant HIV-1 protease; purchased Sigma-Aldrich SRP2151
Experimental: HIV-1 protease enzymatic activity was assayed in black 96-well plates at room temperature using a Synergy_h1 fluorescent plate reader with 340 nm excitation and 490 nm emission wavelengths (BioTek). Each enzymatic reaction consisted of a mixture of 100 ng of recombinant HIV-1 protease (Sigma-Aldrich catalog SRP2151), 5 μM concentration of a fluorogenic substrate Arg-Glu(EDANS)-[…]DABCYL)-Arg (Sigma-aldrich catalog H6660), and various concentrations of inhibitor compounds in 100 μL of assay buffer (0.15 M sodium chloride, 1.0 mM EDTA, 1.0 mM DTT, 0.1 M sodium acetate, pH 5.0). The fluorescence of the cleavage reaction was continuously read at every 30 s for a total of 40 min.

HIV-1 = test: Ex vivo HIV-1 release from CD4 T cells of HIV-1 infected individuals; format: cell-based; details: 50 μM; for effect on viral release (virion-associated HIV RNA): CD4 T cells from six HIV-1 infected individuals, day 2 and 4
Experimental: PBMCs were collected from the study subjects in accordance with a clinical protocol approved by the Institutional Review Board of the National Institute of Allergy and Infectious Diseases, National Institutes of Health under protocol #02-I-0202. CD4^+ T cells were isolated from the PBMCs using a human CD4 T cell separation system (StemCell Technologies, Catalog 19052) and were cultured with medium alone or with plate-bound anti-CD3 and soluble anti-CD28 antibody in the absence or presence of 50 μM of indicated compounds for 48 h. The copy number of cell-free viron-associated HIV RNA in the culture supernatants was quantified using the Cobas Ampliprep/Cobas Taqman HIV-1 Test, Version 2.0 (Roche Diagnostics) with droplet digital PCR (ddPCR, BIO-RAD) on day 2 and 4 of stimulation.

HIV-1LAI = HIV-1LAI infection of CD8-depleted PBMC; format: cell-based; details: 100 μM
Excerpt: The use of healthy human peripheral blood mononuclear cells (PBMC) is approved by the Department of Transfusion Medicine at the Clinical Center of National Institutes of Health. The use of PBMC from HIV-1 infected individuals for the study was approved under protocol #02-I-0202 by the Institutional Review Board (IRB) of National Institutes of Health with written informed consent from all donors. Peripheral blood mononuclear cells (PBMCs) from anonymous healthy donors were isolated by Ficoll-Paque gradient, and cultured in RPMI 1640 supplemented with 10% FBS, 1%Penicillin/streptomycin, 1% HEPES buffer and 20 U/mL IL-2 (culture media); and stimulated with 0.2 μg/mL anti-CD3 antibody (okt3) for 2 days. CD8^+ T cells were depleted prior to infection using the Stemcell CD8 positive selection kit according to manufacturer’s instructions. […] The infections were proceeded with or without inhibitors for 6 days or otherwise specified number of days and then analyzed by FACS staining using fluorescent labeled CD4-BV510, CD62L-APC and CD3-PEC7 antibodies (BD Biosciences). […] Replication competent HIV-1 viruses were obtained from the NIH AIDS Reagent Program^4, and expanded by infecting activated CD8-depleted PBMCs, and TCID50 was determined by p24 ELISA.

ADAM9, 10 and 17 mRNA = test: RT-PCR of ADAM9, 10 and 17 mRNA in HIV-1BAL infected PBMC; format: cell-based, human; details: day 3 and 6 of infected samples
Experimental: RT-PCR using ADAM9, 10 and 17 primer probes was assayed using TaqMan primer/probe sets from ThermoFisher with a 50 ng cDNA template as described previously ([Chun et al., 2013]; [Kononchik et al., 2018]). The following TaqMan 20X Gene Expression Assay probes (Dye: FAM-MGB) were used: ADAM9 (Hs00177638_m1), ADAM10 (Hs00153853_m1), ADAM17 (Hs01041915_m1). Expression Assay standard probes (Dye: VIC-MGB) for β-Actin (Hs01060665_g1) or RNase P/RPPH1 (4403328) were used as gene expression controls. Briefly, HIV infected or uninfected cells from triplicate experiments were washed 3x in PBS and lysed for RNA isolation using RNeasy mini kit (QIAGEN corp). The corresponding cDNA samples were prepared using either TaqMan microRNA reverse transcription kit or Invitrogen High-Capacity cDNA reverse transcription kit (Thermo Fisher). Samples were run in duplicate across triplicate experiments on an ABI 7300 Real-Time PCR System (Applied Biosystems) with a threshold of 0.2. Relative gene expression was calculated using the 2^-ΔCt method and normalized to β-Actin or RNaseP as the endogenous controls. All statistical analyses were carried out using the software Prism 8 (GraphPad Software, Inc). Western blot analyses were used to detect the mature active form of ADAMs ([Pereira Vatanabe et al., 2021]). […]

Row | Compound | effect on HIV protease cleavage of fluorogenic substrate [1] | effect on viral release (virion-associated HIV RNA) (HIV-1) | effect on X4 tropic HIV-1LAI infection (HIV-1LAI) | reductions in released virion-associated RNA (HIV-1; day 2 and 4 post stimulation) | HIV-1BAL induced increase of ADAM9, 10, 17 mRNA (ADAM9, 10 and 17 mRNA)
1 | CC1(C)SCCN(S(=O)(=O)c2ccc(Oc3ccncc3)cc2)[C@H]1C(=O)NO [prinomastat] | none of the MMP inhibitors, including BB-94, prinomastat, GM6001 and DMDP, inhibited the activity of HIV protease | inhibited viral release in a portion of the samples | inhibited the X4 tropic HIV-1LAI infections | – | –
2 | CNC(=O)[C@H](Cc1ccccc1)NC(=O)[C@H](CC(C)C)[C@H](CSc1cccs1)C(=O)NO [BB-94, Batimastat] | none of the MMP inhibitors, including BB-94, prinomastat, GM6001 and DMDP, inhibited the activity of HIV protease | inhibited the viral release from all individuals | inhibited the X4 tropic HIV-1LAI infections | 2–50 fold | increase was not observed
